Measurements reported in patent publication US20250275977A1, “DOSAGE REGIMENS FOR TREATMENT WITH DEUTERATED JAK INHIBITORS” (SUN PHARMACEUTICAL INDUSTRIES, INC., priority 2022, published 2025).

What was measured:
Format in all cases: in vivo, human
[1] = test system: adult patients with moderate-to-severe alopecia areata; test: Phase 2a double-blind, randomized, placebo-controlled trial, efficacy by severity of alopecia tool (SALT); conditions: for patients who achieved a ≥50% reduction in their overall SALT score: week 24, relative to baseline; for difference from placebo on all SALT measures / patients who achieved a ≥75% reduction in their overall SALT score / patients who achieved a ≥90% reduction in their overall SALT score: week 24; for significant changes in SALT score compared to placebo observed starting at: p<0.05
Text: The efficacy of treatment of hair loss disorders such as alopecia areata can be measured in a variety of ways, some of which are known in the art. For example, the “severity of alopecia tool”, otherwise known as SALT, is a validated assessment scale—developed by the National Alopecia Areata Foundation working committee—to evaluate the degree of hair loss. See, e.g., Olsen E A, Hordinsky M K, Price V H, et al. Alopecia areata investigational assessment guidelines—Part II. J Am Acad Dermatol 2004: 51: 440-447 (incorporated herein by reference). The SALT score is calculated for a patient by measuring the percentage of hair loss in each of the 4 areas of the scalp and adding the total to achieve a composite score. Hair regrowth is reflected by a decrease in the SALT score. For example, no hair on the scalp would have a SALT score of 100 while complete hair regrowth would be a SALT score of 0. In certain embodiments, methods of treatment as described herein can provide a SALT score improvement of at least 10 points after treatment (for example, from a SALT score of 100 prior to treatment to a SALT score of 90 after treatment). In further embodiments, methods of treatment as described herein can provide a SALT score improvement of at least 20 points, 30 points, 40 points, 50 points, 60 points, 70 points, 80 points, 90 points, or 100 points. In certain embodiments, methods of treatment as described herein can provide after treatment at least a 20% improvement from baseline in the patient's SALT score, or at least a 30% improvement from baseline in the patient's SALT score, or at least a 40% improvement from baseline in the patient's SALT score, or at least a 50% improvement from baseline in the patient's SALT score, or at least a 60% improvement from baseline in the patient's SALT score, or at least a 70% improvement from baseline in the patient's SALT score, or at least a 75% improvement from baseline in the patient's SALT score or at least a 80% improvement from baseline in the patient's SALT score, or at least a 90% improvement from baseline in the patient's SALT score.
(§1) A Phase 2a trial was conducted to evaluate the safety and efficacy of Compound (I) (CTP-543) in subjects with alopecia, with the primary efficacy analysis at week 24. The Phase 2a trial was a double-blind, randomized, placebo-controlled trial to evaluate the safety and efficacy of Compound (I) in adult patients with moderate-to-severe alopecia areata. Patients were sequentially randomized to receive one of three doses of Compound I as the phosphate salt (e.g., 10.5 mg of Compound (I) phosphate salt is equivalent 8 mg of Compound (I) free base). The doses of Compound (I) were 4, 8 (i.e., about 10.5 mg of Compound (I) phosphate salt), and 12 mg twice daily, and there was also a patient group receiving placebo. The primary outcome measure utilized the severity of alopecia tool (SALT) after 24 weeks of dosing.
Interim top line analysis for the 4 mg, 8 mg, and 12 mg cohorts is discussed below. The primary endpoint for the study was a 50% relative reduction in SALT between Week 24 and baseline.

[2] = test system: adult patients with moderate-to-severe alopecia areata; test: Phase 2a trial, safety: treatment emergent adverse events by patient
Experimental: as §1

[3] = test system: subjects with alopecia areata; test: Open-label extension study (OLE), SALT score after dose reduction
Experimental: In an ongoing open-label extension study, subjects who were previously enrolled in a qualifying clinical study (including the study described in Example 1) and received either a total daily dose of 16 mg of Compound (I) (CTP-543, phosphate salt), a total daily dose of 24 mg of CTP-543, or placebo, and completed through the 24-week treatment period, were eligible to enroll in an open-label extension study (OLE) and continue to receive treatment with CTP-543 phosphate. A total of 152 subjects were enrolled in the OLE. In the OLE, subjects received daily treatment with CTP-543 at a dose of 8 mg BID or 12 mg BID (see FIG. 8). Dose adjustments were allowed at the investigator's discretion. One subject enrolled in the OLE, who received a daily dose of 24 mg QD of CTP-543 for approximately 9 months (i.e., the 24-week study period and the initial 3 months of the OLE), experienced hair growth at that dose (SALT score of zero, i.e., full regrowth of hair prior to dose reduction). The subject then had their dose reduced to a daily dose of 8 mg BID of CTP-543 phosphate. After approximately 7 months in the OLE receiving the lower daily dose of 8 mg BID of CTP-543, the subject continued to substantially maintain hair regrowth, with a SALT score of 7.92.

[2H]C1([2H])C([C@@H](CC#N)n2cc(-c3ncnc4[nH]ccc34)cn2)C([2H])([2H])C([2H])([2H])C1([2H])[2H] [CTP-543, (R)-3-(4-(7H-pyrrolo[2,3-d]pyrimidin-4-yl)-1H-pyrazol-1-yl)-3-(cyclopentyl-2,2,3,3,4,4,5,5-d8)propanenitrile]
separation from placebo on all measures ([1]; 4 mg BID): failed to separate from placebo on all measures
patients who achieved a ≥50% reduction in their overall SALT score ([1]; 4 mg BID): 21%
difference from placebo on all SALT measures ([1]; 8 mg BID): significantly different from placebo
patients who achieved a ≥75% reduction in their overall SALT score ([1]; 8 mg BID): 29%
patients who achieved a ≥90% reduction in their overall SALT score ([1]; 8 mg BID): 16%
patients who achieved a ≥50% reduction in their overall SALT score ([1]; 8 mg BID): 47%
significant changes in SALT score compared to placebo observed starting at ([1]; 8 mg cohort): 12 weeks
12 mg BID dose compared to the 8 mg BID dose ([1]; 12 mg BID vs 8 mg BID): numerically superior and generally produced faster onset and greater effect
difference from placebo on all SALT measures ([1]; 12 mg BID): significantly different from placebo
patients who achieved a ≥75% reduction in their overall SALT score ([1]; 12 mg BID): 42%
patients who achieved a ≥90% reduction in their overall SALT score ([1]; 12 mg BID): 36%
patients who achieved a ≥50% reduction in their overall SALT score ([1]; 12 mg BID): 58%
significant changes in SALT score compared to placebo observed starting at ([1]; 12 mg cohort): 12 weeks
Acne, patients with event ([2]; 4 mg twice daily): 4
Acne, percent of patients ([2]; 4 mg twice daily): (13.8%)
Blood creatine phosphokinase increased, patients with event ([2]; 4 mg twice daily): 3
Blood creatine phosphokinase increased, percent of patients ([2]; 4 mg twice daily): (10.3%)
Cough, patients with event ([2]; 4 mg twice daily): 4
Cough, percent of patients ([2]; 4 mg twice daily): (13.8%)
Diarrhoea, patients with event ([2]; 4 mg twice daily): 3
Diarrhoea, percent of patients ([2]; 4 mg twice daily): (10.3%)
Folliculitis, patients with event ([2]; 4 mg twice daily): 3
Folliculitis, percent of patients ([2]; 4 mg twice daily): (10.3%)
Headache, patients with event ([2]; 4 mg twice daily): 5
Headache, percent of patients ([2]; 4 mg twice daily): (17.2%)
LDL increase, patients with event ([2]; 4 mg twice daily): 0
Nasopharyngitis, patients with event ([2]; 4 mg twice daily): 3
Nasopharyngitis, percent of patients ([2]; 4 mg twice daily): (10.3%)
Nausea, patients with event ([2]; 4 mg twice daily): 4
Nausea, percent of patients ([2]; 4 mg twice daily): (13.8%)
Oroharyngeal pain, patients with event ([2]; 4 mg twice daily): 3
Oroharyngeal pain, percent of patients ([2]; 4 mg twice daily): (10.3%)
Upper respiratory tract infection, patients with event ([2]; 4 mg twice daily): 2
Upper respiratory tract infection, percent of patients ([2]; 4 mg twice daily): (6.9%)
Acne, patients with event ([2]; 8 mg twice daily): 4
Acne, percent of patients ([2]; 8 mg twice daily): (10.5%)
Blood creatine phosphokinase increased, patients with event ([2]; 8 mg twice daily): 2
Blood creatine phosphokinase increased, percent of patients ([2]; 8 mg twice daily): (5.3%)
Cough, patients with event ([2]; 8 mg twice daily): 1
Cough, percent of patients ([2]; 8 mg twice daily): (2.6%)
Diarrhoea, patients with event ([2]; 8 mg twice daily): 1
Diarrhoea, percent of patients ([2]; 8 mg twice daily): (2.6%)
Folliculitis, patients with event ([2]; 8 mg twice daily): 2
Folliculitis, percent of patients ([2]; 8 mg twice daily): (5.3%)
Headache, patients with event ([2]; 8 mg twice daily): 10
Headache, percent of patients ([2]; 8 mg twice daily): (26.3%)
LDL increase, patients with event ([2]; 8 mg twice daily): 4
LDL increase, percent of patients ([2]; 8 mg twice daily): (10.5%)
Nasopharyngitis, patients with event ([2]; 8 mg twice daily): 3
Nasopharyngitis, percent of patients ([2]; 8 mg twice daily): (7.9%)
Nausea, patients with event ([2]; 8 mg twice daily): 4
Nausea, percent of patients ([2]; 8 mg twice daily): (10.5%)
Oroharyngeal pain, patients with event ([2]; 8 mg twice daily): 2
Oroharyngeal pain, percent of patients ([2]; 8 mg twice daily): (5.3%)
Upper respiratory tract infection, patients with event ([2]; 8 mg twice daily): 2
Upper respiratory tract infection, percent of patients ([2]; 8 mg twice daily): (5.3%)
Acne, patients with event ([2]; 12 mg twice daily): 6
Acne, percent of patients ([2]; 12 mg twice daily): (16.7%)
Blood creatine phosphokinase increased, patients with event ([2]; 12 mg twice daily): 1
Blood creatine phosphokinase increased, percent of patients ([2]; 12 mg twice daily): (2.8%)
Cough, patients with event ([2]; 12 mg twice daily): 2
Cough, percent of patients ([2]; 12 mg twice daily): (5.6%)
Diarrhoea, patients with event ([2]; 12 mg twice daily): 0
Folliculitis, patients with event ([2]; 12 mg twice daily): 1
Folliculitis, percent of patients ([2]; 12 mg twice daily): (2.8%)
Headache, patients with event ([2]; 12 mg twice daily): 7
Headache, percent of patients ([2]; 12 mg twice daily): (19.4%)
LDL increase, patients with event ([2]; 12 mg twice daily): 0
Nasopharyngitis, patients with event ([2]; 12 mg twice daily): 9
Nasopharyngitis, percent of patients ([2]; 12 mg twice daily): (25.0%)
Nausea, patients with event ([2]; 12 mg twice daily): 1
Nausea, percent of patients ([2]; 12 mg twice daily): (2.8%)
Oroharyngeal pain, patients with event ([2]; 12 mg twice daily): 1
Oroharyngeal pain, percent of patients ([2]; 12 mg twice daily): (2.8%)
Upper respiratory tract infection, patients with event ([2]; 12 mg twice daily): 7
Upper respiratory tract infection, percent of patients ([2]; 12 mg twice daily): (19.4%)
serious adverse events ([2]; 4, 8 and 12 mg BID, 24 weeks): no serious adverse events
tolerability of treatment ([2]; 4, 8 and 12 mg BID, 24 weeks): generally well-tolerated
Grade 3/4 hematology events ([2]; preliminary analysis, total, distributed equally across the placebo, 4 mg and 8 mg groups): 3
SALT score ([3]; one subject, 24 mg QD for approximately 9 months, prior to dose reduction): zero
SALT score ([3]; same subject, after approximately 7 months at the reduced dose of 8 mg BID): 7.92
